Experimental data published in patent publication US20080262029A1, “Acid and Base Salt Forms of Gaboxadol” (H. Lundbeck A/S, priority 2005, published 2008).
Counter-ions that a name gives are not always drawn.

Legend:
[1] = Differential scanning calorimetry (DSC) of gaboxadol salt forms; format: physicochemical; details: for DSC exothermic decomposition onset / DSC exothermic transition onset: 25 to 300° C., 10° C./min, dry nitrogen
Protocol: (§1) The X-ray powder diffraction spectra was generated on a Philips Analytical X'Pert PRO X-ray Diffraction System with PW3040/60 console. A PW3373/00 ceramic Cu LEF X-ray tube K-Alpha radiation was used as the source. The X-ray powder diffraction spectrum was recorded at ambient temperature (CuKα radiation, 3° to 40° (2θ), steps of 0.014°, 0.2 sec per step), giving the results herein. Solid-state carbon-13 NMR spectrum was obtained on a Bruker DSX 400WB NMR system using a Bruker 4 mm double resonance CPMAS probe. Carbon-13 NMR spectrum utilized proton/carbon-13 cross-polarization magic-angle spinning with variable-amplitude cross polarization. The sample was spun at 15.0 kHz, and a total of 2048 scans were collected with a recycle delay of 20 seconds. A line broadening of 40 Hz was applied to the spectrum before FT was performed. Chemical shifts are reported on the TMS scale using the carbonyl carbon of glycine (176.03 p.p.m.) as a secondary reference. DSC traces were recorded between 25 and 300° C. (10° C./min), under a flow of dry nitrogen. TGA was carried out between 25 and 300° C. (10° C./min), under a flow of dry nitrogen.

[2] = Thermogravimetric analysis (TGA) of gaboxadol salt forms; format: physicochemical; details: for TGA decomposition onset / TGA weight loss before decomposition (in words): 25 to 300° C., 10° C./min, dry nitrogen
Protocol: as §1

[3] = target: GABAA receptors comprising α4 and δ subunits (Homo sapiens, UniProt O14764+P48169); details: Brown et al, British J. Pharmacol., 136, 965-74 (2002); cited from earlier work
Chain of GABAA receptors comprising α4 and δ subunits (P48169 36-554): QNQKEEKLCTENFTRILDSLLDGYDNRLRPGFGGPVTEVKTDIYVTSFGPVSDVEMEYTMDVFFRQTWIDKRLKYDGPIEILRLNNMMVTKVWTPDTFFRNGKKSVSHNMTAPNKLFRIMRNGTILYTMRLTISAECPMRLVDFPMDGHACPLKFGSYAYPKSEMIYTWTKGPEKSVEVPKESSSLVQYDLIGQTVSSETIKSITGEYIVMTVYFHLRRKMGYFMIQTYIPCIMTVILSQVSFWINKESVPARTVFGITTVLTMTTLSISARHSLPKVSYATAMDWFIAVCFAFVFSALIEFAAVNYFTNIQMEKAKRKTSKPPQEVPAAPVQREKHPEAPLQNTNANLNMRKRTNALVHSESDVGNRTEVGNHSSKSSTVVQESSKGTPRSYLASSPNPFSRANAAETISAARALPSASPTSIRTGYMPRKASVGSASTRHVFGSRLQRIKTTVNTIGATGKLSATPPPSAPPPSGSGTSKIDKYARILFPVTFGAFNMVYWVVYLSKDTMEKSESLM
Chain of GABAA receptors comprising α4 and δ subunits (O14764 25-452): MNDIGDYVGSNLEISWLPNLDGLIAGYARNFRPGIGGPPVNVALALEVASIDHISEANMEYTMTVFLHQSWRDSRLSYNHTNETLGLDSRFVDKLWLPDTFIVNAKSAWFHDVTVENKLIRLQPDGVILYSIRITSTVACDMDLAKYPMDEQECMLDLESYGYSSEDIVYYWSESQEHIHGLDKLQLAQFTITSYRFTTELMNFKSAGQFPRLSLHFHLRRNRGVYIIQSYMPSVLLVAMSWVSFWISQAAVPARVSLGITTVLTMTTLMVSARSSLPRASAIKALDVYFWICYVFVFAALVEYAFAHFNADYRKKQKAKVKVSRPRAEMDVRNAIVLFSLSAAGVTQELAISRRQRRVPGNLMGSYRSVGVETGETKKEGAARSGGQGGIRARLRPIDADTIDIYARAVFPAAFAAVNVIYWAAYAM
Chain of GABAA receptors comprising α4 and δ subunits (P28472 26-473 partner): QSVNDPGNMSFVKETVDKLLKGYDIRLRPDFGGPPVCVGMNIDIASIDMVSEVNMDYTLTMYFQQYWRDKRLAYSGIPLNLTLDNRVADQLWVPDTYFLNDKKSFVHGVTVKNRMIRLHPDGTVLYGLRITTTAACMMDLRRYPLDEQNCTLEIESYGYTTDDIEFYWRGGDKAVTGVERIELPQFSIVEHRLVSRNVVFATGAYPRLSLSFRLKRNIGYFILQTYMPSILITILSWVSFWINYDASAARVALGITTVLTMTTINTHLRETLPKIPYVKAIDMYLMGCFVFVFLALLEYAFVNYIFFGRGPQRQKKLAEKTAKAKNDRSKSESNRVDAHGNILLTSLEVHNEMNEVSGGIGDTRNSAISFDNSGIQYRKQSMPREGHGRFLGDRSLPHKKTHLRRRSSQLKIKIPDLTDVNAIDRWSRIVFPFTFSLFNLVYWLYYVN

| Compound | DSC observation of exothermic events (in words) ([1]; solid analysed by DSC) | DSC exothermic decomposition onset [1] | TGA decomposition onset [2] | other results |
| --- | --- | --- | --- | --- |
| Oc1noc2c1CCNC2 [Calcium Salt, gaboxadol calcium] | exhibited exothermic decomposition | – | – | – |
| C[N+](C)(C)CCO.[O-]c1noc2c1CCNC2 [Choline Salt, gaboxadol choline] | exhibited exothermic transitions | – | – | – |
| Oc1noc2c1CCNC2.c1ccc(CNCCNCc2ccccc2)cc1 [N,N-Dibenzyl-ethylenediamine Salt, gaboxadol N,N-dibenzyl(ethylene)diamine] | exhibited an exothermic transition | – | – | – |
| Oc1noc2c1CCNC2 [Potassium Salt, gaboxadol potassium] | exhibited exothermic transitions | – | – | – |
| Oc1noc2c1CCNC2 [Sodium Salt, gaboxadol sodium] | exhibited exothermic transitions | – | – | – |
| O=C(O)CC(O)(CC(=O)O)C(=O)O.Oc1noc2c1CCNC2 [gaboxadol citrate] | – | 175 °C | about 190 °C | TGA weight loss ([2]; from 32° C. to 103° C.): 8.9 wt % |
| Oc1noc2c1CCNC2 [gaboxadol, 4,5,6,7-tetrahydroisoxazolo[5,4-c]pyridin-3-ol] | – | – | – | Agonist potency (in words) [3]: particularly potent agonist |
| gaboxadol L-lysine [L-Lysine Salt] | exhibited exothermic transitions | – | – | – |
| gaboxadol acetate [Acetate Salt] | – | – | 205 °C | DSC exothermic transition onset [1]: 204 °C; TGA weight loss ([2]; from 40° C. to 115° C.): 5.0 wt % |
| gaboxadol bis-sulfate [Sulfate Salt from ethanol and acetonitrile (Type III)] | – | 207 °C | about 220 °C | TGA weight loss, step 2 ([2]; from 118° C. to 154° C.): 0.8 wt %; TGA weight loss, step 1 ([2]; from about 50° C. to 118° C.): 1.4 wt % |
| gaboxadol bis-sulfate [Sulfate Salt from trifluorotoluene (Type I)] | – | 220 °C | about 220 °C | TGA weight loss, step 2 ([2]; from 87° C. to 180° C.): 4.3 wt %; TGA weight loss, step 1 ([2]; from about 50° C. to 87° C.): 1.2 wt % |
| gaboxadol citrate [Citrate Salt from isopropyl acetate] | – | – | about 190 °C | DSC exothermic transition onset [1]: 175 °C; TGA weight loss ([2]; from 31° C. to 109° C.): 18.5 wt % |
| gaboxadol fumarate [Fumarate Salt] | – | 215 °C | about 190 °C | TGA weight loss before decomposition (in words) [2]: no weight loss |
| gaboxadol magnesium [Magnesium Salt] | – | – | – | Temperature below which DSC indicated no exothermic events ([1]; solid analysed by DSC): approximately 345 °C |
| gaboxadol phosphate [Phosphate Salt] | – | about 200 °C | 214 °C | TGA weight loss before decomposition (in words) [2]: no weight loss |
| gaboxadol succinate [Succinate Salt] | – | 198 °C | 193 °C | TGA weight loss before decomposition (in words) [2]: no weight loss |
| gaboxadol sulfate [Sulfate Salt (1 mol equiv.)] | – | about 190 °C | 196 °C | TGA weight loss ([2]; from 50° C. to 176° C.): 7.1 wt % |
| gaboxadol tartrate [L-Tartrate Salt] | – | 199 °C | about 189 °C | TGA weight loss ([2]; from 31° C. to 177° C.): 0.6 wt % |
